Measurements as given in patent US6723753B2, “Substituted n-benzyl-n-phenyl aminoalcohol compounds useful for inhibiting cholesteryl ester transfer protein activity” (Pharmacia Corporation, priority 2002, dated 2004).

The compounds below were run against T1, CETP (Homo sapiens, UniProt P11597) (assay: Assay of CETP Inhibition using Purified Components (Reconstituted Buffer Assay)). Settings: IC50, Inhibition of CETP activity in reconstituted buffer assay; transfer of [3H]CE from HDL to LDL.
T1 sequence (P11597 18-493): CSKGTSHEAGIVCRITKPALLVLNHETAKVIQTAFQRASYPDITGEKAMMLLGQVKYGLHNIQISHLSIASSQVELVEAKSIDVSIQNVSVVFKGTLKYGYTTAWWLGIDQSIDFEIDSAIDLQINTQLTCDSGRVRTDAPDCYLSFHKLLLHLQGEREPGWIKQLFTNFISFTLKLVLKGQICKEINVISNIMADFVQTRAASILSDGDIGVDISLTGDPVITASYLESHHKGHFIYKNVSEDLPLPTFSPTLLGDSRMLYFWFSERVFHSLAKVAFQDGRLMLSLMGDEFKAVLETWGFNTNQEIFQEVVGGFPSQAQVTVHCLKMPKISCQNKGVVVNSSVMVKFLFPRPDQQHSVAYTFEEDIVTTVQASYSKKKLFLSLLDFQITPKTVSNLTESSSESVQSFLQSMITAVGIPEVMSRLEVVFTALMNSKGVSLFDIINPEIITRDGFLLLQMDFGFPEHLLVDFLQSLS
Format: biochemical
Set-up: made in house; host or cells: CHO cells (serum-free conditioned medium)
How it was run: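 Transfer of radiolabeled cholesteryl ester from HDL to LDL was run for 2 h at 37 °C in pH 7.4 Tris buffer with 1% BSA, using purified CHO-expressed human CETP. Precipitated LDL radioactivity, measured by scintillation after dextran sulfate/MgCl2 precipitation and filtration, yielded the IC50.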
With `OC(CN(Cc1cccc(-c2ccncc2)c1)c1cccc(Oc2ccccc2)c1)C(F)(F)F` (stereo not drawn) [Example 591] the IC50 was 6.2 µM. `CC(C)Cc1cccc(CN(CC(O)C(F)(F)F)c2cccc(Oc3ccccc3)c2)c1` (stereo not drawn) [Example 598] gave an IC50 of 0.54 µM. Work on `OC(CN(Cc1ccc2c(c1)OC(F)(F)C(F)(F)O2)c1cccc(Oc2ccccc2)c1)C(F)(F)F` (stereo not drawn) [Example 687] yielded an IC50 of 12 µM.

Same assay, conditions: Inhibition of CETP activity in reconstituted buffer assay; transfer of [3H]CE from HDL to LDL; read-out: IC50
With `OC(CN(Cc1cccc(Cc2ccccc2)c1)c1cccc(Oc2ccccc2)c1)C(F)(F)F` (stereo not drawn) [Example 596, 3-[(3-phenoxyphenyl)[[3-(phenylmethyl)phenyl]methyl]amino]-1,1,1-trifluoro-2-propanol] the IC50 was 13 µM. For `CC(C)CCc1cccc(CN(CC(O)C(F)(F)F)c2cccc(Oc3ccccc3)c2)c1` (stereo not drawn) [Example 597], the IC50 was 2 µM. Work on `OC(CN(Cc1cccc(Oc2ncccn2)c1)c1cccc(Oc2ccccc2)c1)C(F)(F)F` (stereo not drawn) [Example 605, 3-[(3-phenoxyphenyl) [[3-(2-pyrimidinyloxy)phenyl]methyl]amino]-1,1,1-trifluoro-2-propanol] yielded an IC50 of 12 µM. `OC(CN(Cc1cccc(-c2ccccc2)c1)c1cccc(Oc2ccccc2)c1)C(F)(F)F` (stereo not drawn) [Example 606] gave an IC50 of 4.2 µM. With `OC(CN(Cc1cccc(C2CCCC2)c1)c1cccc(Oc2ccccc2)c1)C(F)(F)F` (stereo not drawn) [Example 607, 3-[(3-phenoxyphenyl)[[3-cyclopentylphenyl]methyl]amino]-1,1,1-trifluoro-2-propanol] the IC50 was 0.31 µM. With `OC(CN(Cc1cccc(C2CCCO2)c1)c1cccc(Oc2ccccc2)c1)C(F)(F)F` (stereo not drawn) [Example 608, 3-[(3-phenoxyphenyl)[[3-(tetrahydro-2-furanyl)phenyl]methyl]amino]-1,1,1-trifluoro-2-propanol] the IC50 was 2.3 µM. `FC(F)C(F)(F)Oc1cccc(C2OC(C(F)(F)F)CN2c2cccc(Oc3ccccc3)c2)c1` (stereo not drawn) [Example 610, 3-(3-phenoxyphenyl)-2-[3-(1,1,2,2-tetrafluoroethoxy)phenyl]-5-(trifluoromethyl)oxazolidine] was tested, and the IC50 was 20 µM. Work on `OC(CCN(Cc1cccc(OC(F)(F)F)c1)Cc1cccc(OC(F)(F)F)c1)C(F)(F)F` (stereo not drawn) [Example 611, 4-[bis-[[3-(trifluoromethoxy)phenyl]methyl]amino]-1,1,1-trifluoro-2-butanol] yielded an IC50 of 12 µM. With `CN(C)C(=O)c1cccc(CN(CC(O)C(F)(F)F)c2cccc(Oc3ccccc3)c2)c1` (stereo not drawn) [Example 612, N,N-dimethyl-3-[[(3-phenoxyphenyl)(3,3,3-trifluoro-2-hydroxypropyl)amino]methyl]benzamide] the IC50 was 35 µM. Compound `CC(C)(O)c1cccc(CN(CC(O)C(F)(F)F)c2cccc(Oc3ccccc3)c2)c1` (stereo not drawn) [Example 617, α, α-dimethyl-3-[[(3-phenoxyphenyl)(3,3,3-trifluoro-2-hydroxypropyl)amino]methyl]benzenemethanol] has an IC50 of 7.9 µM. In the case of `CCC(=O)c1cccc(CN(CC(O)C(F)(F)F)c2cccc(Oc3ccccc3)c2)c1` (stereo not drawn) [Example 620, 1-[3-[[(3-phenoxyphenyl)(3,3,3-trifluoro-2-hydroxypropyl)-amino]methyl]phenyl]-1-propanone], the IC50 is reported as 5 µM. Compound `OC(CN(Cc1cccc(C(F)(F)F)c1)c1ccc(C#Cc2ccccc2)c(C(F)(F)F)c1)C(F)(F)F` (stereo not drawn) [Example 622] has an IC50 of 3.5 µM. With `OC(CN(Cc1cccc(C(F)(F)F)c1)c1ccc(Br)c(C(F)(F)F)c1)C(F)(F)F` (stereo not drawn) [Example 625, 3-[4-bromo-3-(trifluoromethyl)phenyl[[3-(trifluoromethyl)-phenyl]methyl]amino]-1,1,1-trifluoro-2-propanol] the IC50 was 8.3 µM. With `CC(CCc1cccc(OC(F)(F)F)c1)N(CC(O)C(F)(F)F)c1cccc(Oc2ccccc2)c1` (stereo not drawn) [Example 626, 3-[[1-methyl-3-[3-(trifluoromethoxy)phenyl]propyl](3-phenoxyphenyl)amino]-1,1,1-trifluoro-2-propanol] the IC50 was 30 µM. With `COCc1cccc(CN(CC(O)C(F)(F)F)c2cccc(Oc3ccccc3)c2)c1` (stereo not drawn) [Example 627, 3-[[(3-phenoxyphenyl)(3,3,3-trifluoro-2-hydroxypropyl)amino]methyl]methoxymethylbenzene] the IC50 was 4.1 µM. With `CCN(CC)c1ccc(CN(CC(O)C(F)(F)F)c2cccc(Oc3ccccc3)c2)cc1` (stereo not drawn) [Example 631, 3-[(3-phenoxyphenyl)[[4-(N,N-diethylamino)phenyl]methyl]amino]-1,1,1-trifluoro-2-propanol] the IC50 was greater than 100 µM. `OC(CN(Cc1cccc(OC(F)(F)F)c1)c1nc(Cl)nc(Oc2ccc(F)cc2)n1)C(F)(F)F` (stereo not drawn) [Example 632, N-[2-chloro-6-(p-fluorophenoxy)-1,3,5-triazin-4-yl]-3-[[[3-(trifluoromethoxy)phenyl]methyl]amino]-1,1,1-trifluoro-2-propanol] gave an IC50 of 6.8 µM. In the case of `Cc1ccc(Oc2cccc(N(Cc3cccc(OC(F)(F)F)c3)CC(O)C(F)(F)F)c2)cn1` (stereo not drawn) [Example 633, 3-[[3-(2-methyl-5-pyridyloxy)phenyl][[3-(trifluoromethoxy)phenyl]methyl]-amino]-1,1,1-trifluoro-2-propanol], the IC50 is reported as 3.1 µM. In the case of `OC(CN(Cc1cccc(OC(F)(F)F)c1)c1cccc(Cc2cccc(N(Cc3cccc(OC(F)(F)F)c3)CC(O)C(F)(F)F)c2)c1)C(F)(F)F` (stereo not drawn) [Example 665, 1,1′-[methylenebis[3,1-phenylene[[[3-(trifluoromethoxy)phenyl]methyl]imino]]]bis[3,3,3-trifluoro-2-propanol]], the IC50 is reported as 80 µM. `COc1ccccc1N(Cc1ccc(C)cc1)CC(O)C(F)(F)F` (stereo not drawn) [Example 667] gave an IC50 greater than 100 µM. `COc1ccccc1N(Cc1cccc(C)c1)CC(O)C(F)(F)F` (stereo not drawn) [Example 668] showed an IC50 greater than 100 µM. `COc1ccccc1N(Cc1cccc(C(F)(F)F)c1)CC(O)C(F)(F)F` (stereo not drawn) [Example 669] was tested, and the IC50 was greater than 100 µM. `Cc1ccc(CN(CC(O)C(F)(F)F)c2ccccc2C(F)(F)F)cc1` (stereo not drawn) [Example 673] gave an IC50 greater than 100 µM. Work on `COc1ccc(Oc2cccc(CN(CC(O)C(F)(F)F)c3cccc(F)c3)c2)cc1` (stereo not drawn) [Example 675] yielded an IC50 greater than 100 µM. Compound `OC(CN(Cc1cccc(Oc2ccc(Cl)cc2)c1)c1cccc(F)c1)C(F)(F)F` (stereo not drawn) [Example 676] has an IC50 greater than 100 µM. With `OC(CN(Cc1cc(C(F)(F)F)cc(C(F)(F)F)c1)c1cccc(F)c1)C(F)(F)F` (stereo not drawn) [Example 677] the IC50 was greater than 100 µM. `Cc1cccc(CN(CC(O)C(F)(F)F)c2cccc(F)c2F)c1` (stereo not drawn) [Example 678] was tested, and the IC50 was greater than 100 µM. With `Cc1ccc(CN(CC(O)C(F)(F)F)c2cccc(C(F)(F)F)c2F)cc1` (stereo not drawn) [Example 679] the IC50 was greater than 100 µM. `Cc1cccc(CN(CC(O)C(F)(F)F)c2cccc(C(F)(F)F)c2F)c1` (stereo not drawn) [Example 680] was tested, and the IC50 was greater than 100 µM. With `Cc1ccc(CN(CC(O)C(F)(F)F)c2cccc(F)c2F)cc1` (stereo not drawn) [Example 681] the IC50 was greater than 100 µM. `COc1ccccc1N(Cc1ccc(C(F)(F)F)cc1)CC(O)C(F)(F)F` (stereo not drawn) [Example 682] gave an IC50 greater than 100 µM. In the case of `OC(CN(Cc1ccc(OCc2ccccc2)cc1)c1cccc(OC(F)(F)F)c1)C(F)(F)F` (stereo not drawn) [Example 683], the IC50 is reported as 20 µM. With `O=[N+]([O-])c1cc(Cl)ccc1CN(CC(O)C(F)(F)F)c1cccc(Oc2ccccc2)c1` (stereo not drawn) [Example 684] the IC50 was greater than 100 µM. `OC(CN(Cc1ccc(Oc2ccc(Cl)c(Cl)c2)cc1)c1cccc(Oc2ccccc2)c1)C(F)(F)F` (stereo not drawn) [Example 685] gave an IC50 of 60 µM. For `OC(CN(Cc1cccc(C(F)(F)F)c1)c1ccc(-c2ccccc2)cc1)C(F)(F)F` (stereo not drawn) [Example 689], the IC50 was 5 µM. Compound `Oc1cccc(N(Cc2cccc(OC(F)(F)F)c2)CC(O)C(F)(F)F)c1` (stereo not drawn) [Example 692] has an IC50 of 16 µM. For `CCC(=O)c1ccc(Oc2cccc(N(Cc3cccc(OC(F)(F)C(F)F)c3)CC(O)C(F)(F)F)c2)cc1` (stereo not drawn) [Example 693], the IC50 was 1.2 µM. `FC(CN(Cc1cccc(OC(F)(F)C(F)F)c1)c1cccc(Oc2ccccc2)c1)C(F)(F)F` (stereo not drawn) [Example 1669, N-(3-phenoxyphenyl)-N-(3,3,3,2-tetrafluoropropyl)-3-(1,1,2,2-tetrafluoroethoxy)benzenemethanamine] was tested, and the IC50 was 17 µM. `CCc1cc(Oc2cccc(N(Cc3cccc(OC(F)(F)C(F)F)c3)C(CO)C(F)(F)F)c2)ccc1Cl` (stereo not drawn) [Example 1670] gave an IC50 of 1.8 µM. For `FC(F)(F)CCCN(Cc1cccc(OC(F)(F)F)c1)c1cccc(Oc2ccccc2)c1` [Example 1671, N-(3-phenoxyphenyl)-N-(4,4,4-trifluorobutyl)-3-(trifluoromethoxy) benzenemethanamine], the IC50 was 11 µM. `OC(CN(Cc1ccc(C(F)(F)F)cc1)Cc1cccc(F)c1)C(F)(F)F` (stereo not drawn) [compound 169] gave an IC50 greater than 100 µM. `OC(CN(Cc1ccc(F)cc1)Cc1ccc(C(F)(F)F)cc1)C(F)(F)F` (stereo not drawn) [compound 170] gave an IC50 greater than 100 µM. For `OC(CN(Cc1ccc(C(F)(F)F)cc1)Cc1ccccc1F)C(F)(F)F` (stereo not drawn) [compound 171], the IC50 was greater than 100 µM. `OC(CN(Cc1ccc(C(F)(F)F)cc1)Cc1cccc(Cl)c1)C(F)(F)F` (stereo not drawn) [compound 172] was tested, and the IC50 was 7 µM. For `OC(CN(Cc1ccc(Cl)cc1)Cc1ccc(C(F)(F)F)cc1)C(F)(F)F` (stereo not drawn) [compound 173], the IC50 was 20 µM. For `OC(CN(Cc1ccc(C(F)(F)F)cc1)Cc1ccccc1Cl)C(F)(F)F` (stereo not drawn) [compound 174], the IC50 was greater than 100 µM. Work on `OC(CN(Cc1cccc(Cl)c1)Cc1ccccc1C(F)(F)F)C(F)(F)F` (stereo not drawn) [compound 175] yielded an IC50 greater than 100 µM. With `OC(CN(Cc1ccc(Cl)cc1)Cc1ccccc1C(F)(F)F)C(F)(F)F` (stereo not drawn) [compound 176] the IC50 was greater than 100 µM.
